Consider one compound from patent US20120283293A1, “Methods of neuroprotection involving Prostaglandin E2 EP4 (PGE2 EP4) receptor activation” (The Board of Trustees of the Leland Stanford Junior …, priority 2011, published 2012).

In this assay the test system is PKA activity in BV-2 cells. Put plainly: cAMP dependent protein kinase A (PKA) activity assay in BV-2 cells. Format: cell-based, murine. The settings on record: H89 at 5 μM and 10 μM. As to the method:
PKA activity was determined using the PKA kinase activity assay kit (Assay designs, Ann Arbor, Mich.). Cells were harvested 3 minutes after stimulation, and ELISA was carried out according to the manufacturer's instructions. Kinase activity was calculated as (sample absorbance—blank absorbance)/μg protein and normalized to the average value of vehicle.
Downstream signaling events for EP4, a […] receptor, were investigated in LPS treated BV-2 cells (see FIG. 3). […] The increase in PKA activity from EP4 receptor signaling was blocked with the PKA inhibitor H89 at doses of 5 μM and 10 μM (FIG. 3B).

Consider `O=S(=O)(NCCNC/C=C/c1ccc(Br)cc1)c1cccc2cnccc12` [H89], for which the “AE1-329-mediated increase in PKA activity” value is reported as “blocked”.
